Test results: patent publication US8129371B2, “Thienopyrimidine and pyrazolopyrimidine compounds and their use as mTOR kinase and PI3 kinase inhibitors” (Wyeth LLC, priority 2007, dated 2012)

Tests used:
[1] = system: prostate line LNCap; assay: In vitro cell culture growth assay (MTS), LNCap; type: cell-based; settings: Homo sapiens, LNCaP, 72 h, LNCap cells, three days after drug treatment
Outline: (§1)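 Growth is reported as percent of vehicle-treated control grown in the same plate, with viability determined by metabolic conversion of MTS dye and absorbance read at 490 nm. Compounds were applied one day after plating and left for three days.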

[2] = system: breast line MDA468; assay: In vitro cell culture growth assay (MTS), MDA468; type: cell-based; settings: Homo sapiens, 72 h, MDA468 cells, three days after drug treatment
Outline: as §1

[3] = target: T1, Human mTOR (FLAG-TOR) (Homo sapiens, UniProt P42345); assay: Human mTOR kinase assay with purified enzyme, DELFIA format; type: biochemical
T1 construct: FLAG
Outline: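 DELFIA readout: Eu-anti-P(T389)-S6K antibody (40 ng/mL, 1 h) on captured His6-S6K from the stopped reaction. Kinase step used purified FLAG-tagged human mTOR with test compound in HEPES (pH 7.4)/MnCl2/DTT buffer, 2 h at room temperature (linear 1–6 h), terminated by EDTA/EGTA.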

[4] = target: T2, PI3K (Homo sapiens, UniProt P42336); assay: Fluorescence polarization assay for PI3K; type: biochemical; settings: PI3 Kinase α; read-out: PI3 Kinase α IC50
T2 construct: PI3 Kinase α IC50; other: PI3 Kinase α; other: PI3 Kinase α isoform, fluorescence polarization
Outline: (§2)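 Fluorescence-polarization competition readout: after 30–60 min of PIP2/ATP turnover in 1% DMSO, a stop mix with GST-GRP (70 nM) and red probe (10 nM) was added.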

[5] = target: T3, PI3K (Homo sapiens, UniProt P48736); assay: Fluorescence polarization assay for PI3K; type: biochemical; settings: PI3 Kinase γ; read-out: PI3 Kinase γ IC50
T3 construct: PI3 Kinase γ IC50; other: PI3 Kinase γ; other: PI3 Kinase γ isoform, fluorescence polarization
Outline: as §2

T3 sequence (P48736 whole entry, canonical isoform): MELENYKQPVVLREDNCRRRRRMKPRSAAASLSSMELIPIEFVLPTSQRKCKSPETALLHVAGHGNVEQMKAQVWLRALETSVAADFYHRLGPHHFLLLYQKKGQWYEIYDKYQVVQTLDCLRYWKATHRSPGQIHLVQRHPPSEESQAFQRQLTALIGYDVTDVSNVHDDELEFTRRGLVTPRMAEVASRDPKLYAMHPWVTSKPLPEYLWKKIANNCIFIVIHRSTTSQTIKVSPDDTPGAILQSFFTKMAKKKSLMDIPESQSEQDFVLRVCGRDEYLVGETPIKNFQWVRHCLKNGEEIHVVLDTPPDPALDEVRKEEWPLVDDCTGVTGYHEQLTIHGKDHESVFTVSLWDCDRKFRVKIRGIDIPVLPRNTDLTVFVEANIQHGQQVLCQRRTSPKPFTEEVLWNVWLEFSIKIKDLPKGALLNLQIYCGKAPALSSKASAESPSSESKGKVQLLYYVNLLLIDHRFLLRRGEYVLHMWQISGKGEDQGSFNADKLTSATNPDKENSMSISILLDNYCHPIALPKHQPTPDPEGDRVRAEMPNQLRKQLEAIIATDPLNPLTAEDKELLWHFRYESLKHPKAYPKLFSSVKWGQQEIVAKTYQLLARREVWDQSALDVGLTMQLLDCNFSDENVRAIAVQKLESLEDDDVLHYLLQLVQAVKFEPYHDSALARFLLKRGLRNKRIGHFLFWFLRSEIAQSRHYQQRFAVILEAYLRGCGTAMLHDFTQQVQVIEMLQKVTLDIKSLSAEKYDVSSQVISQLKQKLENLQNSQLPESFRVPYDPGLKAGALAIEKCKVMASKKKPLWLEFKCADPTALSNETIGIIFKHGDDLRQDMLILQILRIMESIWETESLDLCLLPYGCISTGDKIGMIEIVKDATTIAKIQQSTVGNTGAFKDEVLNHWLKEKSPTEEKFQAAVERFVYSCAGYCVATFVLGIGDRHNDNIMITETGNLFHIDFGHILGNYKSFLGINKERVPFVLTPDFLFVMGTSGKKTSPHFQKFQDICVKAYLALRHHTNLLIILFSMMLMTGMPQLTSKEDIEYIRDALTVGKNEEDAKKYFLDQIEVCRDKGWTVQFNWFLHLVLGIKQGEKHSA
T2 sequence (P42336 whole entry, canonical isoform): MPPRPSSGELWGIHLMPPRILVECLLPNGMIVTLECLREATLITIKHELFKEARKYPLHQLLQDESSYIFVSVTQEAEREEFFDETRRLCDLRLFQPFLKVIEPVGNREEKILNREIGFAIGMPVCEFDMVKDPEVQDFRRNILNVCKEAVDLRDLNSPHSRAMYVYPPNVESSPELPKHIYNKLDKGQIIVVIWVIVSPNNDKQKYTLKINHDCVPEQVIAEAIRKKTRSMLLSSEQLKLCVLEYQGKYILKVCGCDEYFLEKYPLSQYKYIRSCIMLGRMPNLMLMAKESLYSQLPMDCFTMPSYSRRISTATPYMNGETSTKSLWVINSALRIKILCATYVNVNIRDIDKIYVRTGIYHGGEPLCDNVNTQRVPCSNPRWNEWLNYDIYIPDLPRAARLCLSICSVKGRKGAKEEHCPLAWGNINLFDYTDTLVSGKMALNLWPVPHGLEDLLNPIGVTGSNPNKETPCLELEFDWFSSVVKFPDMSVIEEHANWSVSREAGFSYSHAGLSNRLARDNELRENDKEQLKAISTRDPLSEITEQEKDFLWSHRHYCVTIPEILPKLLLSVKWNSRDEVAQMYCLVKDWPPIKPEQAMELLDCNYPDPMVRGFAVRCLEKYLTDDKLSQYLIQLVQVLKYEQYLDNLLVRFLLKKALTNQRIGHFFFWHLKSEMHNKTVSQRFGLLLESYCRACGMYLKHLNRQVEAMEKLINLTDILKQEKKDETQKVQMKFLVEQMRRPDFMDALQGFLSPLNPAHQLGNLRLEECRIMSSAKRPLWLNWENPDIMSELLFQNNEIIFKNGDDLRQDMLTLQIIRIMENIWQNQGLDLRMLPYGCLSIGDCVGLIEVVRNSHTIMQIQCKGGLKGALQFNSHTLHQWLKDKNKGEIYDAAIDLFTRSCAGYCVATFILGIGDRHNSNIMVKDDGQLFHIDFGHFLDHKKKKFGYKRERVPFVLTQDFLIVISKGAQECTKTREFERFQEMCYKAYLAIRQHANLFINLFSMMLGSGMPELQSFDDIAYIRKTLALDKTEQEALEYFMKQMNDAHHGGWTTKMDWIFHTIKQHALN

SMILES	IC50 [1] [nM]	IC50 [2] [nM]	IC50 [3] [nM]	IC50 [4] [nM]	IC50 [5] [nM]
O=C(Nc1ccc(-c2nc(N3CC4CCC(C3)O4)c3cnn(CCO)c3n2)cc1)OCCO [Example 195, 2-hydroxyethyl {4-[1-(2-hydroxyethyl)-4-(8-oxa-3-azabicyclo[3.2.1]oct-3-yl)-1H-pyrazolo[3,4-d]pyrimidin-6-yl]phenyl}carbamate]	640	1500	4.9	1880	> 10000
O=C(NCCO)Nc1ccc(-c2nc(N3CC4CCC(C3)O4)c3cnn(CCO)c3n2)cc1 [Example 196, 1-(2-hydroxyethyl)-3-{4-[1-(2-hydroxyethyl)-4-(8-oxa-3-azabicyclo[3.2.1]oct-3-yl)-1H-pyrazolo[3,4-d]pyrimidin-6-yl]phenyl}urea]	10000	13000	2.2	607	7330
O=C(Nc1ccc(-c2nc(N3CC4CCC(C3)O4)c3cnn(CCO)c3n2)cc1)NC1CC1 [Example 197, 1-cyclopropyl-3-{4-[1-(2-hydroxyethyl)-4-(8-oxa-3-azabicyclo[3.2.1]oct-3-yl)-1H-pyrazolo[3,4-d]pyrimidin-6-yl]phenyl}urea]	400	1400	2.85	1340	12000
O=C(Nc1ccccc1)Nc1ccc(-c2nc(N3CC4CCC(C3)O4)c3cnn(CCO)c3n2)cc1 [Example 198, 1-{4-[1-(2-hydroxyethyl)-4-(8-oxa-3-azabicyclo[3.2.1]oct-3-yl)-1H-pyrazolo[3,4-d]pyrimidin-6-yl]phenyl}-3-phenylurea]	28	190	0.685	68	1930
O=C(Nc1ccc(-c2nc(N3CC4CCC(C3)O4)c3cnn(CCO)c3n2)cc1)Nc1cccnc1 [Example 199, 1-{4-[1-(2-hydroxyethyl)-4-(8-oxa-3-azabicyclo[3.2.1]oct-3-yl)-1H-pyrazolo[3,4-d]pyrimidin-6-yl]phenyl}-3-pyridin-3-ylurea]	90	110	0.46	174	3990
O=C(Nc1ccncc1)Nc1ccc(-c2nc(N3CC4CCC(C3)O4)c3cnn(CCO)c3n2)cc1 [Example 200, 1-{4-[1-(2-hydroxyethyl)-4-(8-oxa-3-azabicyclo[3.2.1]oct-3-yl)-1H-pyrazolo[3,4-d]pyrimidin-6-yl]phenyl}-3-pyridin-4-ylurea]	50	50	0.39	92	2200
O=C(Nc1ccc(CO)cc1)Nc1ccc(-c2nc(N3CC4CCC(C3)O4)c3cnn(CCO)c3n2)cc1 [Example 201, 1-{4-[1-(2-hydroxyethyl)-4-(8-oxa-3-azabicyclo[3.2.1]oct-3-yl)-1H-pyrazolo[3,4-d]pyrimidin-6-yl]phenyl}-3-[4-(hydroxymethyl)phenyl]urea]	13	12	0.265	50	1760
O=C(Nc1ccc(CCO)cc1)Nc1ccc(-c2nc(N3CC4CCC(C3)O4)c3cnn(CCO)c3n2)cc1 [Example 202, 1-{4-[1-(2-hydroxyethyl)-4-(8-oxa-3-azabicyclo[3.2.1]oct-3-yl)-1H-pyrazolo[3,4-d]pyrimidin-6-yl]phenyl}-3-[4-(2-hydroxyethyl)phenyl]urea]	1	4	0.215	44	2160
CN1CCN(c2ccc(NC(=O)Nc3ccc(-c4nc(N5CC6CCC(C5)O6)c5cnn(CCO)c5n4)cc3)cc2)CC1 [Example 203, 1-{4-[1-(2-hydroxyethyl)-4-(8-oxa-3-azabicyclo[3.2.1]oct-3-yl)-1H-pyrazolo[3,4-d]pyrimidin-6-yl]phenyl}-3-[4-(4-methylpiperazin-1-yl)phenyl]urea]	1	2	1.07	104	1140
O=C(Nc1ccc(-c2nc(N3CC4CCC(C3)O4)c3cnn(CCO)c3n2)cc1)Nc1ccc(N2CCOCC2)cc1 [Example 204, 1-{4-[1-(2-hydroxyethyl)-4-(8-oxa-3-azabicyclo[3.2.1]oct-3-yl)-1H-pyrazolo[3,4-d]pyrimidin-6-yl]phenyl}-3-(4-morpholin-4-ylphenyl)urea]	6	35	0.49	274	11300
CN1CCN(c2ccc(NC(=O)Nc3ccc(-c4nc(N5CC6CCC(C5)O6)c5cnn(CCO)c5n4)cc3)cn2)CC1 [Example 205, 1-{4-[1-(2-hydroxyethyl)-4-(8-oxa-3-azabicyclo[3.2.1]oct-3-yl)-1H-pyrazolo[3,4-d]pyrimidin-6-yl]phenyl}-3-[6-(4-methylpiperazin-1-yl)pyridin-3-yl]urea]	90	80	1.7	202	3570
O=C(Nc1ccc(-c2nc(N3CC4CCC(C3)O4)c3cnn(CCO)c3n2)cc1)Nc1ccc(N2CCOCC2)nc1 [Example 206, 1-{4-[1-(2-hydroxyethyl)-4-(8-oxa-3-azabicyclo[3.2.1]oct-3-yl)-1H-pyrazolo[3,4-d]pyrimidin-6-yl]phenyl}-3-(6-morpholin-4-ylpyridin-3-yl)urea]	190	120	0.7	469	11800
Nc1ccc(-c2nc(N3CC4CCC(C3)O4)c3cnn(CCO)c3n2)cc1 [Example 207, 2-[6-(4-aminophenyl)-4-(8-oxa-3-azabicyclo[3.2.1]oct-3-yl)-1H-pyrazolo[3,4-d]pyrimidin-1-yl]ethanol]	14000	38000	145	3590	> 10000
CCOC(=O)Nc1ccc(-c2nc(N3CC4CCC(C3)O4)c3cnn(CCO)c3n2)cc1 [Example 208, ethyl {4-[1-(2-hydroxyethyl)-4-(8-oxa-3-azabicyclo[3.2.1]oct-3-yl)-1H-pyrazolo[3,4-d]pyrimidin-6-yl]phenyl}carbamate]	220	900	8.2	1860	> 10000
O=C(Nc1ccc(-c2nc(N3CC4CCC(C3)O4)c3cnn(C4CCN(CC(F)(F)F)CC4)c3n2)cc1)OCCO [Example 209, 2-hydroxyethyl (4-{4-(8-oxa-3-azabicyclo[3.2.1]oct-3-yl)-1-[1-(2,2,2-trifluoroethyl)piperidin-4-yl]-1H-pyrazolo[3,4-d]pyrimidin-6-yl}phenyl)carbamate]	40	600	2.25	3710	4950
O=C(Nc1ccc(-c2nc(N3CC4CCC(C3)O4)c3cnn(C4CCN(Cc5cccnc5)CC4)c3n2)cc1)OCCO [Example 210, 2-hydroxyethyl (4-{4-(8-oxa-3-azabicyclo[3.2.1]oct-3-yl)-1-[1-(pyridin-3-ylmethyl)piperidin-4-yl]-1H-pyrazolo[3,4-d]pyrimidin-6-yl}phenyl)carbamate]	4	110	0.93	1750	> 10000
O=C1CCC(n2ncc3c(N4CC5CCC(C4)O5)nc(-c4ccc(NC(=O)OCCO)cc4)nc32)CC1 [Example 211, 2-hydroxyethyl {4-[4-(8-oxa-3-azabicyclo[3.2.1]oct-3-yl)-1-(4-oxocyclohexyl)-1H-pyrazolo[3,4-d]pyrimidin-6-yl]phenyl}carbamate]	17	120	0.885	2120	> 10000
O=C(Nc1ccc(-c2nc(N3CC4CCC(C3)O4)c3cnn(C4CCC(O)CC4)c3n2)cc1)OCCO (stereo not drawn) [Example 212, 2-hydroxyethyl {4-[1-(4-hydroxycyclohexyl)-4-(8-oxa-3-azabicyclo[3.2.1]oct-3-yl)-1H-pyrazolo[3,4-d]pyrimidin-6-yl]phenyl}carbamate]	42	190	0.565	3960	> 10000
N#CCCn1ncc2c(N3CC4CCC(C3)O4)nc(-c3ccc(NC(=O)OCCO)cc3)nc21 [Example 213, 2-hydroxyethyl {4-[1-(2-cyanoethyl)-4-(8-oxa-3-azabicyclo[3.2.1]oct-3-yl)-1H-pyrazolo[3,4-d]pyrimidin-6-yl]phenyl}carbamate]	150	1000	1.25	4530	> 10000
CNC(=O)Nc1ccc(-c2nc(N3CC4CCC(C3)O4)c3cnn(CCC#N)c3n2)cc1 [Example 214, 1-{4-[1-(2-cyanoethyl)-4-(8-oxa-3-azabicyclo[3.2.1]oct-3-yl)-1H-pyrazolo[3,4-d]pyrimidin-6-yl]phenyl}-3-methylurea]	210	570	1.5	726	> 10000
N#CCCn1ncc2c(N3CC4CCC(C3)O4)nc(-c3ccc(NC(=O)NC4CC4)cc3)nc21 [Example 215, 1-{4-[1-(2-cyanoethyl)-4-(8-oxa-3-azabicyclo[3.2.1]oct-3-yl)-1H-pyrazolo[3,4-d]pyrimidin-6-yl]phenyl}-3-cyclopropylurea]	78	800	1.35	3600	> 10000
